Source: patent US20240182415A1, “ACETAL, KETAL, AND […] OF PSILOCIN, PROCESSES FOR THE PREPARATION THEREOF, AND METHODS OF USE” (Invyxis, Inc., priority 2022, published 2024)
Like-named read-outs stand apart in the source and are kept apart here.

Assays:
[1] = target: human serotonin 5HT2A receptor (Homo sapiens, UniProt P28223); assay: 5HT2A receptor radioligand displacement assay; conditions: displacement of [3H]-ketanserin or [3H]-LSD, 5HT2A membrane from HEK293
[2] = Compound stability, IP-One incubation; type: in vitro ADME; conditions: IP-One stimulation medium on CHO-K1 cells expressing 5-HT2A, 2 μM, 60 min vs T0, 37° C.
Description: IP-One incubation. CHO-K1 cells expressing recombinant Serotonin receptor 5-HT2A (Perkin Elmer, Waltham, MA), were seeded in 96-well plates (˜80,000 cells/well) and treated with 28 μL (per well) of stimulation medium (IP-One HTRF® kit) containing test compounds (2 μM) for 1 hr in a CO2 incubator (5%) at 37° C. The cell-treated medium from 3 wells were pooled together to provide 40 μL for LC-MS analysis. Aliquots for each compound were collected at time zero (To, 100% intact test compound) and 60-min. The incubated medium (40 μL) was quenched with 120 μL of acetonitrile containing 0.5 μM glyburide (IS), and the supernatant was collected by centrifugation (2500 rpm, 15 min.). LC-MS was performed using an Agilent MSD (electrospray in positive ionization) equipped with a Kinetic C18 reverse-column. The percent of test compound remaining is calculated using the ratio of the peak areas of intact test compound at 60 min. over T0. The percent of psilocin release is calculated by comparing the peak area of psilocin at 60 min. (for test compound) vs. peak area at T0 (2 μM psilocin). Results are summarized in Table 1, (rel to % parent detected; and/or % psilocin detected).

[3] = Compound stability in fasted state simulated gastric fluid (FaSSGF); type: in vitro ADME; conditions: 37° C., 60 min vs T0
Description: Fasted state simulated gastric fluid (FaSSGF). FaSSGF was prepared according to the manufacturer instructions (Biorelevant, UK). Test compounds (2 μL of 200 μM solution) were added to a 96-well plate containing 198 μL FaSSGF per well. The mixture was incubation in a thermomixer at 37° C. for 60 min. Sample aliquots were removed (40 μL, from T0 and 60 min.) and quenched with acetonitrile containing 0.5 μM glyburide (IS), and the supernatant collected by centrifugation (2500 rpm, 15 min.). LC-MS was performed using an Agilent MSD (electrospray in positive ionization) equipped with a Kinetic C18 reverse-column. The percent of test compound remaining was calculated using the ratio of the peak area of intact test compound at 60 min. over T0. The percent of psilocin release was calculated by comparing the peak area of psilocin at 60 min, (for test compound) vs. peak area at T0 (2 μM psilocin).

[4] = Single-dose oral pharmacokinetics in mice (plasma and brain); type: in vivo, C57BL6 mice; conditions: PO 3.0 mg/kg
Description: The single-dose pharmacokinetics of test compounds were analyzed relative to control (psilocin) in C57BL6 mice via oral (PO) administration. Test compound was dissolved in DMSO and transferred to a 15-mL tube, followed by addition of Tween-80, PEG-400, and water to final volume. The resulting formulation (0.3 mg/mL compound, in DMSO (1%), Tween-80 (5%), and PEG-400 (25%) in water (69%)) was vortexed for 2 min. and mixed by inversion.
Male C57BL6 mice (3× per compound, (at a weight ˜20 g)) received a single dose (oral) of test compound at 3.0 mg/kg. Blood samples were collected pre-dose and at 0.083, 0.25, 0.5, 1, 2, 4, 8, 24-hour post-dose to yield approximately 20 μL of pooled plasma (3× mice) per time point. Brain tissues were collected at 2- and 8-hr post-dose. Brain was flushed with saline solution using a perfusion needle through the ascending aorta of the ventricle to remove any remaining blood prior to collection. Plasma and brain homogenate samples were stored at −80° C. prior to extraction for LC-MS/MS analysis.
Samples were analyzed by LC-MS/MS to quantify the amounts of test compound and control (psilocin). The calculation of the pharmacokinetic (PK) parameters (AUCt, AUCinf, Cmax, Tmax, T1/2, and Kel) can be performed using a non-compartmental analysis (trapezoidal method).

Chain of human serotonin 5HT2A receptor (P28223 whole entry): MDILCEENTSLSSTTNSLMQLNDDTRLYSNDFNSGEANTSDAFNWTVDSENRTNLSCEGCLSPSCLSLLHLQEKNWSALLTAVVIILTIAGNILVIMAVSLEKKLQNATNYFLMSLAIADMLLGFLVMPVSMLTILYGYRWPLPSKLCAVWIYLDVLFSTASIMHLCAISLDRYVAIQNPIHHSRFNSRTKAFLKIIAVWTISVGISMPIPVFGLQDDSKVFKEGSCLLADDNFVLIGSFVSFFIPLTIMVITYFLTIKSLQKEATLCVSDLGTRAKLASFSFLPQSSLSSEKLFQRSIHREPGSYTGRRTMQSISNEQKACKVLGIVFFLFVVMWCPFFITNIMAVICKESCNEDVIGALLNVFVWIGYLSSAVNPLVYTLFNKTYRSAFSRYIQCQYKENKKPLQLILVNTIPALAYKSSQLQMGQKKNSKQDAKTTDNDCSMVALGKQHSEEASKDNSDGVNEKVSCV

| Structure (SMILES) | Displacement activity relative to psilocin [1] | % parent compound [2] | other results |
| --- | --- | --- | --- |
| CCOCOc1cccc2[nH]cc(CCN(C)C)c12 [drawing 96] | +++ | – | – |
| CCOCOc1cccc2[nH]cc(CCN(C)C)c12 [drawing 86] | – | 91.9% | – |
| COCCOCn1cc(CCN(C)C)c2c(OCOC)cccc21 [drawing 94] | – | – | % parent compound [3]: 20% |
| COC(C)n1cc(CCN(C)C)c2c(O)cccc21 (centres unmarked) [drawing 88] | – | 82.5% | – |
| COC(C)Oc1cccc2[nH]cc(CCN(C)C)c12 (centres unmarked) [drawing 87] | – | 88.8% | – |
| CN(C)CCc1c[nH]c2cccc(O)c12 [Psilocin, 4-hydroxy-N,N-dimethyltryptamine] | ++ | 87.4% | % parent compound [3]: 72.2%; mean brain/plasma (B/P) ratio ([4]; 2-h post-dose, with estimated plasma concentration of 5 ng/mL): 11.2±4.3; psilocin in the brain at 8-h post-dose ([4]; 8-h post-dose): No psilocin in the brain was detected; Parent PK [brain] 2 h ([4]; brain, 2 h post-dose, parent compound): 54 ng/mL; Cmax ([4]; male, C57BL6, mouse, plasma, estimated, based on other pharmacokinetic data, read-out: Parent PK Cmax (estimated psilocin plasma concentration)): 5 ng/mL |
| COCCOCn1cc(CCN(C)C)c2c(OCOC)cccc21 [drawing 99] | + | – | – |
| CCOCOc1cccc2[nH]cc(CCN(C)C)c12 [drawing 91] | – | – | % parent compound [3]: 97% |
| COCCOCn1cc(CCN(C)C)c2c(OCOC)cccc21 [drawing 89] | – | 94.7% | – |
| COC(C)Oc1cccc2[nH]cc(CCN(C)C)c12 (centres unmarked) [Test compound A, 2-(4-(1-methoxyethoxy)-1H-indol-3-yl)-N,N-dimethylethan-1-amine] | – | – | concentration at 2 h ([4]; male, C57BL6, mouse, brain, 2 h post-dose, parent compound, read-out: Parent PK [brain] 2 h): 0.6 ng/mL; AUC ([4]; male, C57BL6, mouse, plasma, parent compound, read-out: Parent PK AUC): 51.4 ng·h/mL; Cmax ([4]; male, C57BL6, mouse, plasma, parent compound, read-out: Parent PK Cmax): 21.6 ng/mL |
| COC(C)n1cc(CCN(C)C)c2c(O)cccc21 (centres unmarked) [drawing 98] | + | – | – |
| COC(C)Oc1cccc2[nH]cc(CCN(C)C)c12 (centres unmarked) [drawing 97] | ++ | – | – |
